Source: ChEMBL document CHEMBL5518232, “Discovery of New Tricyclic Oxime Sampangine Derivatives as Potent Antifungal Agents for the Treatment of Cryptococcosis and Candidiasis” (J Med Chem, 2024)
Values after ≈ are worked out from the molar mass of the structure shown.

How the values were obtained:
Candida albicans [1] = assay: Antifungal activity against Candida albicans SC5314 assessed as reduction in fungal growth incubated for 48 hrs by liquid based microdilution method; assay type: functional
Candida albicans [2] = assay: Antifungal activity against Candida albicans 0304103 assessed as reduction in fungal growth incubated for 48 hrs by liquid based microdilution method; assay type: functional
Candida tropicalis = assay: Antifungal activity against Candida tropicalis 10186 assessed as reduction in fungal growth incubated for 48 hrs by liquid based microdilution method; assay type: functional
Nakaseomyces glabratus = assay: Antifungal activity against Candida glabrata 9073 assessed as reduction in fungal growth incubated for 48 hrs by liquid based microdilution method; assay type: functional
Cryptococcus neoformans [3] = assay: Antifungal activity against Cryptococcus neoformans H99 assessed as reduction in fungal growth incubated for 72 hrs by liquid based microdilution method; assay type: functional
Cryptococcus neoformans [4] = assay: Antifungal activity against Cryptococcus neoformans ATCC 34877 assessed as reduction in fungal growth incubated for 72 hrs by liquid based microdilution method; assay type: functional
[5] = Antifungal activity against Cryptococcus gattii VGI ATCC 14116 assessed as reduction in fungal growth incubated for 72 hrs by liquid based microdilution method; assay type: functional
Candida albicans [6] = assay: Synergistic antifungal activity against Candida albicans 0304103 assessed as inhibition of fungal growth incubated for 48 hrs in presence of fluconazole by checkerboard microdilution assay; assay type: functional
Candida albicans [7] = assay: Synergistic antifungal activity against Candida albicans 0304103 assessed as fractional inhibitory concentration index by measuring ratio of MIC80 for compound and synergetic / MIC80 for compound alone + MIC80 for fluconazole synergetic / MIC80 for fluconazole alone; assay type: functional
[8] = Effective permeability of the compound across blood brain barrier incubated for 12 hrs by PAMPA assay; assay type: ADME; details: read-out: Peff

SMILES | MIC80 (Candida albicans [1]) [µg/mL] | MIC80 (Candida albicans [2]) [µg/mL] | MIC80 (Candida tropicalis) [µg/mL] | MIC80 (Nakaseomyces glabratus) [µg/mL] | MIC80 (Cryptococcus neoformans [3]) [µg/mL] | MIC80 (Cryptococcus neoformans [4]) [µg/mL] | MIC80 [5] [µg/mL] | MIC80 (Candida albicans [6]) [µg/mL] | fractional inhibitory concentration index (FICI) (Candida albicans [7]) | Papp at 12 h [8] [×10⁻⁶ cm/s]
Cc1noc2c1C(=O)c1ccccc1/C2=N/O | > 64 | > 64 | > 64 | > 64 | 8 (≈ 35.1 µM) | 8 (≈ 35.1 µM) | 16 (≈ 70.1 µM) | 2 | 0.063 | –
CO/N=C1/c2ccoc2C(=O)c2c(C)noc21 | > 64 | > 64 | > 64 | > 64 | 2 (≈ 8.61 µM) | 1 (≈ 4.31 µM) | 8 (≈ 34.5 µM) | 4 | 0.094 | –
Cc1noc2c1C(=O)c1sccc1/C2=N/OC(C)C | > 64 | > 64 | > 64 | > 64 | > 64 | – | – | 2 | 0.063 | –
Cc1noc2c1C(=O)c1sccc1C2=O | 0.13 (≈ 0.593 µM) | 0.5 (≈ 2.28 µM) | 2 (≈ 9.12 µM) | 1 (≈ 4.56 µM) | 0.031 (≈ 0.141 µM) | – | – | – | – | 7.69
